In patent US12161722B2, “Bifunctional heterocyclic compound having BTK degradation function via ubiquitin proteasome pathway, and use thereof” (KOREA RESEARCH INSTITUTE OF CHEMICAL TECHNOLOGY, priority 2021, dated 2024):

Target: T1, WT BTK protein (Homo sapiens, UniProt Q06187)
T1 construct: measured for intracellular BTK protein levels by Western blotting; endogenous in cells; host or cells: TMD-8 or RAMOS cells
Experiment: BTK protein degradation assay (Western blotting), WT BTK
Type: cell-based
Settings: concentration range accounting for 50% degradation of WT BTK protein, TMD-8 or RAMOS cells, 24 hours
In short: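 BTK levels were read by Western blotting (GAPDH and β-actin normalisers) in RIPA lysates of TMD-8 cells exposed to compounds for 24 h at 1×10^6 cells/mL. Results scored in ranges of the concentration producing 50% loss of WT BTK.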

T1 sequence (Q06187 whole entry): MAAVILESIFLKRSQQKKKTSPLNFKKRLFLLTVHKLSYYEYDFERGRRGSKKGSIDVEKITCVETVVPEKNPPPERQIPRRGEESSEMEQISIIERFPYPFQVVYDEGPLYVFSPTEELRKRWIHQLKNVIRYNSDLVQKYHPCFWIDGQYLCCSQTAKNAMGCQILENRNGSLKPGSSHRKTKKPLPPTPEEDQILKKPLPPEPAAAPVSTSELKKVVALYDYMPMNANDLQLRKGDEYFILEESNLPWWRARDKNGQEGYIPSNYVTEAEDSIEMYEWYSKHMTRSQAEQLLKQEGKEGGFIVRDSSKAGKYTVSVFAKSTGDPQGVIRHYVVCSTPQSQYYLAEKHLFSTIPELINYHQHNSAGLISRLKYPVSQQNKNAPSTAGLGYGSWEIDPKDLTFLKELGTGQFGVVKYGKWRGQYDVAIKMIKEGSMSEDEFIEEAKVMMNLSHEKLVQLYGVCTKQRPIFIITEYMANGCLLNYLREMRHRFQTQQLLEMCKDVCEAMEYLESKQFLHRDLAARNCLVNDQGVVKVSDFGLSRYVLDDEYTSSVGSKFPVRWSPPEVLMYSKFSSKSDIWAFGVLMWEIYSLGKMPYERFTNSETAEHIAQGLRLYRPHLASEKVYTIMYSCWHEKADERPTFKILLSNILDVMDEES

| Structure (SMILES) | DC50 [nM] |
| --- | --- |
| Cc1cccc(C)c1Nc1nn(C)c2nc(Nc3ccc(F)c(C4=CCN(CC5CCN(c6ccc7c(c6)C(=O)N(C6CCC(=O)NC6=O)C7=O)CC5)CC4)c3)ncc12 (stereo not shown) [Compound 250, 5-(4-((4-(5-((3-((2,6-Dimethylphenyl)amino)-1-methyl-1H-pyrazolo[3,4-d]pyrimidin-6-yl)amino)-2-fluorophenyl)-3,6-dihydropyridin-1 (2H)-yl)methyl)piperidin-1-yl)-2-(2,6-dioxopiperidin-3-yl)isoindoline-1,3-dione] | 0.1 to 10 |
| Cc1cccc(C)c1Nc1nn(C)c2nc(Nc3ccc(C4CCN(C(=O)C5(F)CCN(c6ccc7c(c6)C(=O)N(C6CCC(=O)NC6=O)C7=O)CC5)CC4)cc3)ncc12 (stereo not shown) [Compound 253, 5-(4-(4-(4-((3-((2,6-dimethylphenyl)amino)-1-methyl-1H-pyrazolo[3,4-d]pyrimidin-6-yl)amino)phenyl)piperidine-1-carbonyl)-4-fluoropiperidin-1-yl)-2-(2,6-dioxopiperidin-3-yl)isoindoline-1,3-dione] | 0.1 to 10 |
| Cc1cccc(C)c1Nc1nn(C)c2nc(Nc3ccc(C4CCN(C(=O)C5(F)CCN(c6cc7c(cc6F)C(=O)N(C6CCC(=O)NC6=O)C7=O)CC5)CC4)cc3)ncc12 (stereo not shown) [Compound 254, 5-(4-(4-(4-((3-((2,6-dimethylphenyl)amino)-1-methyl-1H-pyrazolo[3,4-d]pyrimidin-6-yl)amino)phenyl)piperidine-1-carbonyl)-4-fluoropiperidin-1-yl)-2-(2,6-dioxopiperidin-3-yl)-6-fluoroisoindoline-1,3-dione] | 10 to 1000 |
| Cc1cccc(C)c1Nc1nn(C)c2nc(Nc3ccc(N4CCN(CC5CCN(C(=O)c6ccc7c(c6)CN(C6CCC(=O)NC6=O)C7=O)CC5)CC4)cc3)ncc12 (stereo not shown) [Compound 256, 3-(5-(4-((4-(4-((3-((2,6-Dimethylphenyl)amino)-1-methyl-1H-pyrazolo[3,4-d]pyrimidin-6-yl)amino)phenyl)piperazin-1-yl)methyl)piperidine-1-carbonyl)-1-oxoisoindolin-2-yl)piperidin-2,6-one] | 0.1 to 10 |
| Cc1cccc(C)c1Nc1nn(C)c2nc(Nc3ccc4c(c3)CN(CC3CCN(C(=O)c5ccc6c(c5)CN(C5CCC(=O)NC5=O)C6=O)CC3)CC4)ncc12 (stereo not shown) [Compound 258, 3-(5-(4-((7-((3-((2,6-Dimethylphenyl)amino)-1-methyl-1H-pyrazolo[3,4-d]pyrimidin-6-yl)amino)-3,4-dihydroisoquinolin-2 (1H)-yl)methyl)piperidine-1-carbonyl)-1-oxoisoindolin-2-yl)piperidin-2,6-one] | 0.1 to 10 |
| Cc1cccc(C)c1Nc1nn(C)c2nc(Nc3ccc4c(c3)CN(C(=O)/C(C#N)=C/C3CCN(C(=O)c5ccc6c(c5)CN(C5CCC(=O)NC5=O)C6=O)CC3)CC4)ncc12 (stereo not shown) [Compound 259, (E)-2-(7-((3-((2,6-Dimethylphenyl)amino)-1-methyl-1H-pyrazolo[3,4-d]pyrimidin-6-yl)amino)-1,2,3,4-tetrahydroisoquinoline-2-carbonyl)-3-(1-(2-(2,6-dioxopiperidin-3-yl)-1-oxoisoindoline-5-carbonyl)piperidin-4-yl)acrylonitrile] | 10 to 1000 |
| Cc1cccc(C)c1Nc1nn(C)c2nc(Nc3ccc4c(c3)CN(C(=O)/C(C#N)=C/C3CCN(C(=O)CNc5ccc6c(c5)C(=O)N(C5CCC(=O)NC5=O)C6=O)CC3)CC4)ncc12 (stereo not shown) [Compound 260, (E)-2-(7-((3-((2,6-Dimethylphenyl)amino)-1-methyl-1H-pyrazolo[3,4-d]pyrimidin-6-yl)amino)-1,2,3,4-tetrahydroisoquinoline-2-carbonyl)-3-(1-((2-(2,6-dioxopiperidin-3-yl)-1,3-dioxoisoindolin-5-yl)glycyl)piperidin-4-yl)acrylonitrile] | 0.1 to 10 |
| Cc1cccc(C)c1Nc1nn(C)c2nc(Nc3ccc(C4CCN(C(=O)/C(C#N)=C/C5CCN(C(=O)CNc6ccc7c(c6)C(=O)N(C6CCC(=O)NC6=O)C7=O)CC5)CC4)cc3)ncc12 (stereo not shown) [Compound 261, (E)-2-(4-(4-((3-((2,6-Dimethylphenyl)amino)-1-methyl-1H-pyrazolo[3,4-d]pyrimidin-6-yl)amino)phenyl)piperidine-1-carbonyl)-3-(1-((2-(2,6-dioxopiperidin-3-yl)-1,3-dioxoisoindolin-5-yl)glycyl)piperidin-4-yl)acrylonitrile] | 0.1 to 10 |
| Cc1cccc(C)c1Nc1nn(C)c2nc(Nc3ccc(C4CCN(C(=O)C5CCN(c6ccc7c(c6)n(C)c(=O)n7C6CCC(=O)NC6=O)CC5)CC4)cc3)ncc12 (stereo not shown) [Compound 262, 3-(5-(4-(4-(4-((3-((2,6-Dimethylphenyl)amino)-1-methyl-1H-pyrazolo[3,4-d]pyrimidin-6-yl)amino)phenyl)piperidine-1-carbonyl)piperidin-1-yl)-3-methyl-2-oxo-2,3-dihydro-1H-benzo[d]imidazol-1-yl)piperidin-2,6-one] | 0.1 to 10 |
| Cc1cccc(C)c1Nc1nn(C)c2nc(Nc3ccc(F)c(C4=CCN(C(=O)C5CN(c6ccc7c(c6)C(=O)N(C6CCC(=O)NC6=O)C7=O)C5)CC4)c3)ncc12 (stereo not shown) [Compound 263, 5-(3-(4-(5-((3-((2,6-Dimethylphenyl)amino)-1-methyl-1H-pyrazolo[3,4-d]pyrimidin-6-yl)amino)-2-fluorophenyl)-1,2,3,6-tetrahydropyridine-1-carbonyl)azetidin-1-yl)-2-(2,6-dioxopiperidin-3-yl)isoindoline-1,3-dione] | 0.1 to 10 |
| Cc1cccc(C)c1Nc1nn(C)c2nc(Nc3ccc4c(c3)CN(C(=O)C3CCN(c5ccc6c(c5)n(C)c(=O)n6C5CCC(=O)NC5=O)CC3)CC4)ncc12 (stereo not shown) [Compound 264, 3-(5-(4-(7-((3-((2,6-Dimethylphenyl)amino)-1-methyl-1H-pyrazolo[3,4-d]pyrimidin-6-yl)amino)-1,2,3,4-tetrahydroisoquinoline-2-carbonyl)piperidin-1-yl)-3-methyl-2-oxo-2,3-dihydro-1H-benzo[d]imidazol-1-yl)piperidin-2,6-one] | 0.1 to 10 |
| Cc1cccc(C)c1Nc1nn(C)c2nc(Nc3ccc(N4CCN(CC5CCN(c6ccc7c(c6)C(=O)N(C6CCC(=O)NC6=O)C7=O)CC5)CC4)nn3)ncc12 (stereo not shown) [Compound 268, 5-(4-((4-(6-((3-((2,6-dimethylphenyl)amino)-1-methyl-1H-pyrazolo[3,4-d]pyrimidin-6-yl)amino)pyridazin-3-yl)piperazin-1-yl)methyl)piperidin-1-yl)-2-(2,6-dioxopiperidin-3-yl)isoindoline-1,3-dione] | 0.1 to 10 |
| Cc1cccc(C)c1Nc1nn(C)c2nc(Nc3ccc(C4CCN(CC5CCN(c6cc7c(cc6F)C(=O)N(C6CCC(=O)NC6=O)C7)CC5)CC4)cc3)ncc12 (stereo not shown) [Compound 272, 3-(5-(4-((4-(4-((3-((2,6-dimethylphenyl)amino)-1-methyl-1H-pyrazolo[3,4-d]pyrimidin-6-yl)amino)phenyl)piperidin-1-yl)methyl)piperidin-1-yl)-6-fluoro-1-oxoisoindolin-2-yl)piperidin-2,6-one] | 0.1 to 10 |
